Measurements from patent US20050187581A1, “Methods of treating disorders with electric fields” (priority 2000, published 2005).

Assays:
[1] = system: BALB 3T3/A31 fibroblast/embryo cells; test: Membrane potential of BALB 3T3 cells, DiBAC intensity; assay type: cell-based, murine; details: final concentration of 0.4 mM A23187
Experimental: A23187 is a monocarboxylic acid extracted from Streptomyces chartreusensis that acts as a mobile-carrier calcium ionophore. DiBAC is a fluorescent dye that enters the cell membrane when the membrane's potential changes. Thus, when the membranes of the BALB 3T3 cells depolarize, the DiBAC enters those membranes thereby increasing the intensity of the DiBAC signal (Y-axis) in the BALB 3T3 cells.
The changes in membrane potential were measured with flow cytometry. The methodology for the flow cytometry was as follows. Culture in DMEM was supplemented with 5% FCS 10 mM HEPES. It was then de-touched with 0.02% trypsin and 0.025% EDTA. […] It was then loaded with DiBAC4(3) of a final concentration of 200 nM. It was incubated at 37 degree C. for >5 min. Then the flow cytometry measurements were performed.

ovariectomized rats = details: restraint, after 60 min session, n=6
Experimental: Rats were restricted by wrapping each with a thin polycarbonate sheet and laying it over the lower electrode for 30 min.
To examine the effect of exposure to EF, we used normal and ovariectomized rats. Normal rats were divided into two groups of restraint alone and restraint plus EF.
Ovariectomies were performed 4 weeks before experimentation. EF exposure and restraint treatment applied in this study were as follows: Rats were exposed to 50 Hz, 17,500 V/m EF for a total of 1 hr. Rats were restrained with thin polycarbonate sheeting for the latter half of the EF exposure period. The experimental design in the control groups was the same as in the experimental group except for the absence of EF exposure. […]
Hematological analyses including red and white blood cell count, platelet count, hematocrit and hemoglobin levels were performed using an automatic multi-hemocytometer (Sysmec CC-78, Sysmec inc., Tokyo, Japan). Plasma glucose, lactate and pyruvate levels were measured with an automatic analyzer (7170 Hitachi, Hitachi Co. ltd., Tokyo, Japan). ACTH levels were measured by using an ACTH radio immunoassay kit (ACTH IRMA, MITSUBISHI CHEMICAL Co. Ltd.) and a gamma counter (Auto-Gamma 5530 Gamma Counting System, Packard Instrument Co. ltd.). Plasma corticosterone level was measured using a commercial kit (ImmuChem Double Antibody Corticosterone kit, ICN Biomedicals Inc.). […]

mouse splenocytes = test: [Ca^2+]c-high cells in lectin-stimulated mouse splenocytes, fluo-3 flow cytometry; assay type: cell-based, BALB/c mice
Experimental: In order to avoid contact of the cells and the lower electrode, polycarbonate membrane (Isopore, MILLIPORE, MA USA) was placed between the dish and the insert. Approximately 1 ml of the cell suspension was poured into culture well/space and covered with a lid.
Female BALB/c mice, 4-7 wk old obtained from CLEA Inc. (Tokyo, Japan) maintained in a conventional animal house equipped with clean air-filtering device were splenectomized under anesthesia, and cell suspensions of splenocytes were prepared. To examine cell viability, the cells were cultivated in Dulbecco's modified Eagle's medium (SIGMA, MO, USA) supplemented with 10% fetal bovine serum (FSB). The cells were maintained in Hank's balanced salt solution (HBSS) (SIGMA, MO, USA) during examination for [Ca^2+]c which was carried out within 4 hr after cell preparation. Cells were stored at 4 degree C. prior to use.
Splenocytes (10^6 cells/ml) were incubated for 20 min at 37 degrees C. in HBSS containing 2.5 μM fluo-3-acetoxylmethyl (Molecular Probes, USA) [Vandenberghe et al., 1990]. The cell suspension was then diluted 5 times with HBSS containing 1% FBS, incubated for 40 min at 37 degrees C., washed 3 times with assay buffer, and the cells were then suspended in the assay buffer at a concentration of 1×10^6/ml. Throughout the cell preparation, the cell suspensions were mixed gently.
Considering the reported synergistic interaction between EMF and mitogen (Walleczek and Liburdy, 1990), concanavalin-A (Con-A) (Seikagaku Co., Tokyo, Japan) and phytohemaglutinin (PHA) (SIGMA, MO, USA) were used.
Taking into account the results of the viability test for exposed murine splenocytes earlier assayed, we chose to use the optimum culture and exposure conditions (60 Hz, 6 μA/cm^2 EF) in carrying out the following five experiments: • (1) cells suspended in HEPES-buffered saline (BS)+1 mM CaCl2 were exposed to EF for a total of 40 min, and 12.5 μg/ml of Con-A was added after the first 8 min of exposure. The control groups consisted of EF-unexposed cells containing Con-A, and EF-exposed cells without Con-A. Percent [Ca^2+]c-high cells was checked at certain exposure points; • (2) cells in HEPES-BS+1 mM CaCl2 were exposed for a total of 12 min, and different concentrations (1 ng-12.5 μg/ml) of Con-A were added after the first 4 min of exposure. The control group was essentially the same as that of the experimental group but without EF-exposure; • (3) cells in HEPES-BS+1 mM CaCl2 were exposed for a total of 8 min, and 5 μg/ml of PHA was added after the first 4 min of exposure. The control groups consisted of EF-unexposed cells containing PHA, and EF-exposed cells without PHA; • (4) cells suspended in HEPES-BS without CaCl2 were exposed for a total of 12 min, and different concentrations (1 ng-5 μg/mil) of Con-A were added after the first 4 min of exposure. The control group was essentially the same as the experimental group but without EF exposure; and • (5) to evaluate the persistent effect of EF exposure, cells suspended in HEPES-BS+[…] were exposed for a total of 4 min, after which different concentrations (0.025-12.5 μg/ml) of Con-A were added, and the generation of [Ca^2+]c-high cells for the next 8 min without EF exposure was monitored with flow cytometry. The control was essentially the same as the experimental group but without any EF-exposure. Statistical Analysis

murine splenocytes = test: Cytoplasmic free Ca^2+ in murine splenocytes stimulated with ConA, fluo3 flow cytometry; assay type: cell-based, mice; details: ConA stimulation after 4 min exposure
Experimental: In order to determine the effect of EF on calcium ion concentration in murine splenocytes, specific EF field exposures of 60 Hz were applied to murine splenocytes. Mice were splenectomized under anesthesia. In a 60 mm dish, the spleen was injected with PBS (phosphate buffered saline including 0.083% NH4Cl). The cells were re-suspended and maintained in Hank's balanced salt solution (HBSS) (SIGMA, MO, USA), during examination for [Ca^2+ ]c, which was carried out within 4 hours after cell preparation. Cells were stored at 4° C. prior to use.
The application of a 60 Hz EF to splenocyte cells created applied current densities of 6, 20, 60, and 200 μA/cm^2. Splenocyte cells were exposed to these conditions for 4 minutes, after which exposure the splenocyte samples were stimulated with Concanavalin A (ConA). Following stimulation of splenocytes with ConA, cytoplasmic free Ca^2+ concentration was determined by fluo3 flow cytometry.

CNc1ccc2oc(C[C@H]3O[C@@]4(CC[C@H]3C)O[C@H]([C@H](C)C(=O)c3ccc[nH]3)[C@H](C)C[C@H]4C)nc2c1C(=O)O [A23187]
Membrane potential (DiBAC intensity) [1]: alters the membrane potential

CN1C(=O)CN=C(c2ccccc2)c2cc(Cl)ccc21 [diazepam]
WBC counts (ovariectomized rats): 85 ×10^2 cells/μl

concanavalin-A [Con-A]
Time post-Con-A stimulation of decline in [Ca^2+]c-high cells (mouse splenocytes; 12.5 μg/ml Con-A): approximately 4 min | Time to saturation point of Con-A-induced response after addition of the mitogen (mouse splenocytes; 12.5 μg/ml Con-A): 5 to 8 min | Number of [Ca^2+]c-high cells (mouse splenocytes; 12.5 μg/ml Con-A, 1 mM CaCl2, EF-exposed and unexposed cell suspensions): increased significantly | [Ca^2+]c-high cells compared to cells stimulated with 0.025 μg/ml of Con-A (mouse splenocytes; 3.125-12.5 μg/ml Con-A, unexposed or earlier exposed to EF for 4 min): significant increase | Time post-Con-A stimulation at which sustained increase in [Ca^2+]c-high cells leveled off (mouse splenocytes; 3.125 and 6.25 μg/ml Con-A): about 8 min | Con-A-dependent [Ca^2+]c rise (mouse splenocytes; Ca^2+-free cell condition, control and EF-exposed groups): negligible | Calcium concentration in the splenocyte cells (murine splenocytes): increased
